Experimental data taken from patent US7732475B2, “Histone deacetylase inhibitors” (Takeda San Diego, Inc., priority 2005, dated 2010).
Where two headings read alike, the source gives them in different places.

Target: HDAC2 (Homo sapiens, UniProt Q92769)
Assay: HDAC2 fluorescence inhibition assay (tBoc-Lys(Ac)-AMC)

Chain of HDAC2 (Q92769 with tags, fused parts or gaps): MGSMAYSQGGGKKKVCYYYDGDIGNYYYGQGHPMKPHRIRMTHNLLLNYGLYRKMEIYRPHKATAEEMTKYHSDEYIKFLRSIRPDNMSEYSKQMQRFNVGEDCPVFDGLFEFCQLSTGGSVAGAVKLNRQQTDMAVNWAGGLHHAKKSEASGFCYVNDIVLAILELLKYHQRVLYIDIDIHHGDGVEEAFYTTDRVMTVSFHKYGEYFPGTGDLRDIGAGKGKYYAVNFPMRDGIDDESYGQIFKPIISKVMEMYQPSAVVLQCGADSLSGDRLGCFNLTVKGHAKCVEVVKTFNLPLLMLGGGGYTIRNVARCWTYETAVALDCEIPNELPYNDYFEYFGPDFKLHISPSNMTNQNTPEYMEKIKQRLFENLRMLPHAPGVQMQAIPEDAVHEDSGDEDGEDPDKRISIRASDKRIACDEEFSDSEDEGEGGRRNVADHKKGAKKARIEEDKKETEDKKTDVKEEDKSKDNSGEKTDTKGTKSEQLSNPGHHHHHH

For `Nc1ccccc1NC(=O)c1ccc(Cn2ccc3cccnc32)cc1` [Example 157, 4-((1H-Pyrrolo[2,3-b]pyridin-1-yl)methyl)-N-(2-aminophenyl)benzamide], which IC50 is on record?
Its IC50 is 100 to 500 nM.

`Nc1ccccc1NC(=O)c1ccc(CNc2n[nH]c3ccccc23)cc1` [Example 30, 4-((1H-indazol-3-ylamino)methyl)-N-(2-aminophenyl)benzamide] was tested. Which IC50 did it give?
The IC50 was 50 to 100 nM.

For `CN1CCN(CCCNC(=O)c2cnn(Cc3ccc(C(=O)Nc4ccccc4N)cc3)c2)CC1` [Example 156, 1-(4-(2-aminophenylcarbamoyl)benzyl)-N-(3-(4-methylpiperazin-1-yl)propyl)-1H-pyrazole-4-carboxamide], which IC50 is on record?
The IC50 was 50 to 100 nM.

For `Cc1nn(Cc2ccc(C(=O)Nc3ccccc3N)cc2)c2cc(F)c(F)cc12` [Example 56, N-(2-aminophenyl)-4-((5,6-difluoro-3-methyl-1H-indazol-1-yl)methyl)benzamide], which IC50 is on record?
Its IC50 is 50 to 100 nM.

`Nc1ccccc1NC(=O)c1ccc(Cn2nnc3ccccc32)cc1` [Example 100, 4-((1H-benzo[d][1,2,3]triazol-1-yl)methyl)-N-(2-aminophenyl)benzamide] was tested. Which IC50 did it give?
The IC50 was 50 to 100 nM.

With `CC(C)CNC(=O)c1cnn(Cc2ccc(C(=O)Nc3ccccc3N)cc2)c1` [Example 150, 1-(4-(2-aminophenylcarbamoyl)benzyl)-N-isobutyl-1H-pyrazole-4-carboxamide] as the compound, how does the IC50 read?
Its IC50 is no more than 50 nM.

For `Cc1ccc2c(c1)c(C)nn2Cc1ccc(C(=O)Nc2ccccc2N)cc1` [Example 80, N-(2-aminophenyl)-4-((3,5-dimethyl-1H-indazol-1-yl)methyl)benzamide], which IC50 is on record?
The IC50 was 50 to 100 nM.

For `Nc1ccc2nn(Cc3ccc(C(=O)Nc4ccccc4N)cc3)cc2c1` [Example 9, 4-((5-amino-2H-indazol-2-yl)methyl)-N-(2-aminophenyl)benzamide], which IC50 is on record?
Its IC50 is 50 to 100 nM.

`Cc1c2cc(C(F)(F)F)ccc2nn1Cc1ccc(C(=O)Nc2ccccc2N)cc1` [Example 95, N-(2-aminophenyl)-4-((3-methyl-5-(trifluoromethyl)-2H-indazol-2-yl)methyl)benzamide] was tested. Which IC50 did it give?
The IC50 was no more than 50 nM.

`CNC(=O)c1cnn(Cc2ccc(C(=O)Nc3ccccc3N)cc2)c1` [Example 134, 1-(4-(2-aminophenylcarbamoyl)benzyl)-N-methyl-1H-pyrazole-4-carboxamide] was tested. Which IC50 did it give?
Its IC50 is 50 to 100 nM.

How did the IC50 turn out when `CCc1nn(Cc2ccc(C(=O)Nc3ccccc3N)cc2)c2ccccc12` [Example 72, N-(2-aminophenyl)-4-((3-ethyl-1H-indazol-1-yl)methyl)benzamide] was run?
Its IC50 is 50 to 100 nM.

Which IC50 does the source give for `COc1ccc2c(cnn2Cc2ccc(C(=O)Nc3ccccc3N)cc2)c1` [Example 78, N-(2-aminophenyl)-4-((5-methoxy-1H-indazol-1-yl)methyl)benzamide] here?
The IC50 was no more than 50 nM.

Which IC50 does the source give for `Cc1c2ccc(O)cc2nn1Cc1ccc(C(=O)Nc2ccccc2N)cc1` [Example 75, N-(2-aminophenyl)-4-((6-hydroxy-3-methyl-2H-indazol-2-yl)methyl)benzamide] here?
Its IC50 is 100 to 500 nM.

`CC(=O)Nc1ccc2c(cnn2Cc2ccc(C(=O)Nc3ccccc3N)cc2)c1` [Example 102, 4-((5-acetamido-1H-indazol-1-yl)methyl)-N-(2-aminophenyl)benzamide] was tested. Which IC50 (read-out: IC50 of selected exemplified compounds against HDAC2, 50 μM tBoc-Lys(Ac)-AMC, 1 nM HDAC2, 60 minutes at room temperature) did it give?
The IC50 was no less than 500 nM.

`Nc1ccccc1NC(=O)c1ccc(Cn2cc(C(=O)NCCO)cn2)cc1` [Example 143, 1-(4-(2-aminophenylcarbamoyl)benzyl)-N-(2-hydroxyethyl)-1H-pyrazole-4-carboxamide] was tested. Which IC50 did it give?
The IC50 was 50 to 100 nM.

How did the IC50 turn out when `CN(C)CCCNC(=O)c1cnn(Cc2ccc(C(=O)Nc3ccccc3N)cc2)c1` [Example 144, 1-(4-(2-aminophenylcarbamoyl)benzyl)-N-(3-(dimethylamino)propyl)-1H-pyrazole-4-carboxamide] was run?
Its IC50 is no more than 50 nM.

With `Nc1ccccc1NC(=O)c1ccc(Cn2cc3cc([N+](=O)[O-])ccc3n2)cc1` [Example 8, N-(2-aminophenyl)-4-((5-nitro-2H-indazol-2-yl)methyl)benzamide] as the compound, how does the IC50 read?
The IC50 was no more than 50 nM.

`Nc1ccccc1NC(=O)c1ccc(Cn2cc(C(=O)NCCCO)cn2)cc1` [Example 153, 1-(4-(2-aminophenylcarbamoyl)benzyl)-N-(3-hydroxypropyl)-1H-pyrazole-4-carboxamide] was tested. Which IC50 did it give?
The IC50 was no more than 50 nM.

`COc1cc2cn(Cc3ccc(C(=O)Nc4ccccc4N)cc3)nc2cc1OC` [Example 98, N-(2-aminophenyl)-4-((5,6-dimethoxy-2H-indazol-2-yl)methyl)benzamide] was tested. Which IC50 did it give?
The IC50 was no more than 50 nM.

`Cc1nn(Cc2ccc(C(=O)Nc3ccccc3N)cc2)c2ccc(F)cc12` [Example 70, N-(2-aminophenyl)-4-((5-fluoro-3-methyl-1H-indazol-1-yl)methyl)benzamide] was tested. Which IC50 did it give?
The IC50 was 100 to 500 nM.

For `Nc1ccccc1NC(=O)c1ccc(Cn2cc(C(=O)NCCN3CCOCC3)cn2)cc1` [Example 147, 1-(4-(2-aminophenylcarbamoyl)benzyl)-N-(2-morpholinoethyl)-1H-pyrazole-4-carboxamide], which IC50 is on record?
Its IC50 is 50 to 100 nM.

`CC(c1ccc(C(=O)Nc2ccccc2N)cc1)n1cc2ccccc2n1` (stereo not drawn) [Example 109, 4-(1-(2H-indazol-2-yl)ethyl)-N-(2-aminophenyl)benzamide] was tested. Which IC50 did it give?
Its IC50 is 50 to 100 nM.

With `Cc1nn(Cc2ccc(C(=O)Nc3ccccc3N)cc2)c2cc(O)ccc12` [Example 74, N-(2-aminophenyl)-4-((6-hydroxy-3-methyl-1H-indazol-1-yl)methyl)benzamide] as the compound, how does the IC50 read?
The IC50 was no more than 50 nM.

How did the IC50 turn out when `Cc1nn(Cc2ccc(C(=O)Nc3ccccc3N)cc2)c2cc(C(F)(F)F)ccc12` [Example 93, N-(2-aminophenyl)-4-((3-methyl-6-(trifluoromethyl)-1H-indazol-1-yl)methyl)benzamide] was run?
Its IC50 is 50 to 100 nM.

How did the IC50 turn out when `Nc1ccccc1NC(=O)c1ccc(Cn2cc3cc([N+](=O)[O-])ccc3n2)s1` [Example 20, N-(2-Aminophenyl)-5-((5-nitro-2H-indazol-2-yl)methyl)thiophene-2-carboxamide] was run?
The IC50 was no more than 50 nM.

How did the IC50 turn out when `COC(=O)Nc1ccc2c(cnn2Cc2ccc(C(=O)Nc3ccccc3N)cc2)c1` [Example 14, Methyl 1-(4-((2-aminophenyl)carbamoyl)benzyl)-1H-indazol-5-ylcarbamate] was run?
The IC50 was no more than 50 nM.

For `Nc1ccccc1NC(=O)c1ccc(Cn2ncc3ccc(F)cc32)cc1` [Example 36, N-(2-aminophenyl)-4-((6-fluoro-1H-indazol-1-yl)methyl)benzamide], which IC50 is on record?
The IC50 was 50 to 100 nM.

How did the IC50 turn out when `Nc1ccccc1NC(=O)c1ccc(Cn2ncc3cc(F)ccc32)cc1` [Example 37, N-(2-aminophenyl)-4-((5-fluoro-1H-indazol-1-yl)methyl)benzamide] was run?
Its IC50 is 50 to 100 nM.

Which IC50 does the source give for `Cc1c2ccccc2nn1Cc1ccc(C(=O)Nc2ccccc2N)cc1` [Example 29, N-(2-Aminophenyl)-4-((3-methyl-2H-indazol-2-yl)methyl)benzamide] here?
Its IC50 is 50 to 100 nM.

For `Cc1ccc2nn(Cc3ccc(C(=O)Nc4ccccc4N)cc3)c(C)c2c1` [Example 81, N-(2-aminophenyl)-4-((3,5-dimethyl-2H-indazol-2-yl)methyl)benzamide], which IC50 is on record?
Its IC50 is 50 to 100 nM.

With `Nc1ccccc1NC(=O)c1ccc(CCn2cc3ccccc3n2)cc1` [Example 41, 4-(2-(2H-indazol-2-yl)ethyl)-N-(2-aminophenyl)benzamide] as the compound, how does the IC50 read?
Its IC50 is 50 to 100 nM.

Which IC50 does the source give for `Nc1ccccc1NC(=O)c1ccc(Cn2cc3c(F)cc(F)cc3n2)cc1` [Example 45, N-(2-aminophenyl)-4-((4,6-difluoro-2H-indazol-2-yl)methyl)benzamide] here?
Its IC50 is 50 to 100 nM.

With `Cc1ccnn1Cc1ccc(C(=O)Nc2ccccc2N)cc1` [Example 148, N-(2-aminophenyl)-4-((5-methyl-1H-pyrazol-1-yl)methyl)benzamide] as the compound, how does the IC50 read?
The IC50 was 100 to 500 nM.

For `Nc1ccccc1NC(=O)c1ccc(Cn2nc3ccccc3c2Cl)cc1` [Example 61, N-(2-aminophenyl)-4-((3-chloro-2H-indazol-2-yl)methyl)benzamide], which IC50 is on record?
The IC50 was no more than 50 nM.

Which IC50 does the source give for `Cc1cnn(Cc2ccc(C(=O)Nc3ccccc3N)cc2)c1` [Example 34, N-(2-aminophenyl)-4-((4-methyl-1H-pyrazol-1-yl)methyl)benzamide] here?
The IC50 was 100 to 500 nM.

For `Cc1c2cc(F)c(F)cc2nn1Cc1ccc(C(=O)Nc2ccccc2N)cc1` [Example 57, N-(2-aminophenyl)-4-((5,6-difluoro-3-methyl-2H-indazol-2-yl)methyl)benzamide], which IC50 is on record?
Its IC50 is 50 to 100 nM.

How did the IC50 turn out when `Nc1ccccc1NC(=O)c1ccc(Cn2cc3cc(NC(=O)N4CCOCC4)ccc3n2)cc1` [Example 18, N-(2-(4-((2-Aminophenyl)carbamoyl)benzyl)-2H-indazol-5-yl)morpholine-4-carboxamide] was run?
Its IC50 is no more than 50 nM.

With `Nc1ccc2c(cnn2Cc2ccc(C(=O)Nc3ccccc3N)cc2)c1` [Example 7, 4-((5-amino-1H-indazol-1-yl)methyl)-N-(2-aminophenyl)benzamide] as the compound, how does the IC50 read?
Its IC50 is no more than 50 nM.

With `Nc1ccccc1NC(=O)c1ccc(Cn2nc(N)c3cc(C(F)(F)F)ccc32)cc1` [Example 63, 4-((3-amino-5-(trifluoromethyl)-1H-indazol-1-yl)methyl)-N-(2-aminophenyl)benzamide] as the compound, how does the IC50 read?
The IC50 was 50 to 100 nM.

With `Cc1nn(Cc2ccc(C(=O)Nc3ccccc3N)cc2)c2ccccc12` [Example 28, N-(2-Aminophenyl)-4-((3-methyl-1H-indazol-1-yl)methyl)benzamide] as the compound, how does the IC50 read?
Its IC50 is 50 to 100 nM.

With `Nc1ccccc1NC(=O)c1ccc(Cn2ncc3cc(C(F)(F)F)ccc32)cc1` [Example 119, N-(2-aminophenyl)-4-((5-(trifluoromethyl)-1H-indazol-1-yl)methyl)benzamide] as the compound, how does the IC50 read?
The IC50 was 50 to 100 nM.

For `C[C@H](c1ccc(C(=O)Nc2ccccc2N)cc1)n1cc2ccccc2n1` [Example 50, (R)-4-(1-(2H-indazol-2-yl)ethyl)-N-(2-aminophenyl)benzamide], which IC50 is on record?
The IC50 was 50 to 100 nM.

Which IC50 does the source give for `Cc1nn(Cc2ccc(C(=O)Nc3ccccc3N)cc2)c2c(F)cccc12` [Example 52, N-(2-aminophenyl)-4-((7-fluoro-3-methyl-1H-indazol-1-yl)methyl)benzamide] here?
The IC50 was 50 to 100 nM.

Which IC50 does the source give for `Nc1ccccc1NC(=O)c1ccc(Cn2cc(C(=O)NCc3ccccc3)cn2)cc1` [Example 128, 1-(4-(2-aminophenylcarbamoyl)benzyl)-N-benzyl-1H-pyrazole-4-carboxamide] here?
Its IC50 is no more than 50 nM.

How did the IC50 turn out when `COc1ccc2c(C)nn(Cc3ccc(C(=O)Nc4ccccc4N)cc3)c2c1` [Example 66, N-(2-aminophenyl)-4-((6-methoxy-3-methyl-1H-indazol-1-yl)methyl)benzamide] was run?
The IC50 was no more than 50 nM.
